Earlier results, collected in US12509559B2, “Bacterial beta-lactamase responsive hydrogels” (Brown University, priority 2019, dated 2025).

Details: adamantane in β-cyclodextrin cavity

In the case of `C1C2CC3CC1CC(C2)C3` [adamantane], the “association constant, K” value is given as ~10^5 M^−1.
